Series [1] is described as follows: Kinetic solubility of compound by LYSA. The note with it: read-out: Kinetic_solubility. Type of series: physicochemical.
Series [2] can be described thus: Clearance in Wistar/Han rat at 0.5 mg/kg, iv administered as single bolus dose. The note with it: in vivo. Type of series: ADME, organism-based.
Series [3] in a line: Tmax in C57BL/6J mouse at 5 mg/kg, po by LC/MS/MS analysis. The note with it: in vivo. Type of series: ADME, organism-based.
Series [4] is described as follows: AUC (0 to last) in C57BL/6J mouse at 1 mg/kg, iv by LC/MS/MS analysis. Type of series: ADME, organism-based. The arrangement: dose 1 mg/kg, route intravenous, time 0 - last. The note with it: in vivo.
A short description of series [5]: Volume of distribution at steady state in C57BL/6J mouse at 1 mg/kg, iv by LC/MS/MS analysis. Type of series: ADME, organism-based. As to conditions: in vivo, read-out: Vdss.
Series [6] is described as follows: Clearance in Wistar/Han rat at 1 mg/kg, iv administered as single bolus dose. The note with it: in vivo. Type of series: ADME, organism-based.
A short description of series [7]: Oral bioavailability in C57BL/6J mouse at 5 mg/kg by LC/MS/MS analysis. Type of series: ADME, organism-based. As to conditions: in vivo.
Series [8] can be described thus: Clearance in C57BL/6J mouse at 1 mg/kg, iv by LC/MS/MS analysis. The note with it: in vivo. Type of series: ADME, organism-based.
Series [9] in a line: Tmax in C57BL/6J mouse at 50 mg/kg, po by LC/MS/MS analysis. Type of series: ADME, organism-based. As to conditions: in vivo.
Series [10] can be described thus: AUC (0 to last) in C57BL/6J mouse at 5 mg/kg, po by LC/MS/MS analysis. Type of series: ADME, organism-based. The arrangement: dose 5 mg/kg, time 0 - last, route oral. As to conditions: in vivo.
Series [11] can be described thus: Oral bioavailability in C57BL/6J mouse at 50 mg/kg by LC/MS/MS analysis. Type of series: ADME, organism-based. As to conditions: in vivo.
The nature of series [12]: Solubility of compound in fed-state simulated intestinal fluid. Type of series: ADME.
Series [13] in a line: Cmax in C57BL/6J mouse at 50 mg/kg, po by LC/MS/MS analysis. The note with it: in vivo. Type of series: ADME, organism-based. The arrangement: dose 50 mg/kg, route oral.
The nature of series [14]: AUC (0 to last) in C57BL/6J mouse at 50 mg/kg, po by LC/MS/MS analysis. The arrangement: dose 50 mg/kg, time 0 - last, route oral. As to conditions: in vivo. Type of series: ADME, organism-based.
Series [15] is described as follows: Cmax in C57BL/6J mouse at 5 mg/kg, po by LC/MS/MS analysis. Type of series: ADME, organism-based. The arrangement: dose 5 mg/kg, route oral. The note with it: in vivo.
Series [16] can be described thus: Solubility of compound in fasted-state simulated intestinal fluid. Type of series: ADME.

Structures are written as SMILES. Converted amounts (≈) assume the structure as drawn. Some results are limits rather than exact numbers.

As to `CC(C)(CO)C1Cc2[nH]c(=O)c3ccccc3c2CO1` (racemic), in series [1], the solubility kinetic amounted to 0.066 mg/mL (≈ 241 µM).

For `Cc1cccc2c(=O)[nH]c3c(c12)COC(C(C)C)C3` (racemic), in series [1], the solubility kinetic was less than 0.001 mg/mL. In addition, in [2], the clearance (in general, the rate of elimination divided by the concentration) came out at 1.2 L/h/kg.

Turning to `CC(C)(C)C1Cc2[nH]c(=O)c3ccccc3c2CO1` (racemic), the solubility kinetic in [1] is less than 0.001 mg/mL. Besides, the clearance in [2] turned out to be 0.12 L/h/kg.

`O=C(C1COC1)N1CCC(C2Cc3[nH]c(=O)c4ccccc4c3CO2)CC1` (racemic): the solubility kinetic in [1] amounted to 0.013 mg/mL (≈ 35.3 µM).

For the compound `CC(C)C1Cc2[nH]c(=O)c3cccnc3c2CO1` (racemic), in [1], the solubility kinetic was determined as 0.013 mg/mL (≈ 53.2 µM). For the same compound, the clearance in series [2] was 0.6 L/h/kg.

As for `Cc1cccc2c(=O)[nH]c3c(c12)COC(C(C)(C)CO)C3` (racemic), the solubility kinetic in series [1] worked out at 0.004 mg/mL (≈ 13.9 µM). For the same compound, the Tmax in series [3] and in series [9] was 15 min throughout. Besides, the AUC(0-t) (commonly exposure summed from dosing to a finite time, without extrapolation to infinity) in series [4] worked out at 0.6 µg·h/mL; in series [10], 1.4 µg·h/mL; in series [14], 27 µg·h/mL. Moreover, in series [5], the Vd is 1.5 L/kg. The clearance in series [6] turned out to be 1.5 L/h/kg; in [8] it was 1.68 L/h/kg. Moreover, the bioavailability (as a rule, the share of a dose that reaches the circulation, judged against a reference dose that is usually intravenous) in [7] was 49%; in series [11], 92%. Moreover, the solubility (commonly the concentration that dissolves in the medium under given conditions) was 0.143 mg/mL (≈ 498 µM) in [12] and 0.05 mg/mL (≈ 174 µM) in [16]. Also, the figures for the highest concentration (Cmax) in series [13] and in series [15] were 14 µg/mL and 1.6 µg/mL, respectively.

On to `CS(=O)(=O)N1CCC(C2Cc3[nH]c(=O)c4ccccc4c3CO2)C1` (racemic), for which, in series [1], the solubility kinetic amounted to 0.028 mg/mL (≈ 80.4 µM). The clearance in series [2] worked out at 2.82 L/h/kg.

As for `CC(C)C1Cc2[nH]c(=O)c3ccccc3c2CO1` (racemic), the solubility kinetic in series [1] is 0.005 mg/mL (≈ 20.6 µM). Also, in series [2], the clearance worked out at 2.22 L/h/kg.

These data come from ChEMBL document CHEMBL3734697, “Fragment-Based Drug Design of Novel Pyranopyridones as Cell Active and Orally Bioavailable Tankyrase Inhibitors” (ACS Med Chem Lett, 2015).
